Assay results as given in paper PMC11345841, “Exploring 2-Sulfonylpyrimidine Warheads as Acrylamide Surrogates for Targeted Covalent Inhibition: A BTK Story” (Journal of Medicinal Chemistry, 2024).
Residue numbers refer to the chain shown, from its start. Where two headings read alike, the source gives them in different places.

Legend:
FLT4 = molecular target: T1, FLT4 (Homo sapiens, UniProt P35916); assay: KINOMEscan ScanTK; assay type: binding
T1 construct: purchased Eurofins DiscoverX KINOMEscan (scanTK)
T1 sequence (P35916 25-1363): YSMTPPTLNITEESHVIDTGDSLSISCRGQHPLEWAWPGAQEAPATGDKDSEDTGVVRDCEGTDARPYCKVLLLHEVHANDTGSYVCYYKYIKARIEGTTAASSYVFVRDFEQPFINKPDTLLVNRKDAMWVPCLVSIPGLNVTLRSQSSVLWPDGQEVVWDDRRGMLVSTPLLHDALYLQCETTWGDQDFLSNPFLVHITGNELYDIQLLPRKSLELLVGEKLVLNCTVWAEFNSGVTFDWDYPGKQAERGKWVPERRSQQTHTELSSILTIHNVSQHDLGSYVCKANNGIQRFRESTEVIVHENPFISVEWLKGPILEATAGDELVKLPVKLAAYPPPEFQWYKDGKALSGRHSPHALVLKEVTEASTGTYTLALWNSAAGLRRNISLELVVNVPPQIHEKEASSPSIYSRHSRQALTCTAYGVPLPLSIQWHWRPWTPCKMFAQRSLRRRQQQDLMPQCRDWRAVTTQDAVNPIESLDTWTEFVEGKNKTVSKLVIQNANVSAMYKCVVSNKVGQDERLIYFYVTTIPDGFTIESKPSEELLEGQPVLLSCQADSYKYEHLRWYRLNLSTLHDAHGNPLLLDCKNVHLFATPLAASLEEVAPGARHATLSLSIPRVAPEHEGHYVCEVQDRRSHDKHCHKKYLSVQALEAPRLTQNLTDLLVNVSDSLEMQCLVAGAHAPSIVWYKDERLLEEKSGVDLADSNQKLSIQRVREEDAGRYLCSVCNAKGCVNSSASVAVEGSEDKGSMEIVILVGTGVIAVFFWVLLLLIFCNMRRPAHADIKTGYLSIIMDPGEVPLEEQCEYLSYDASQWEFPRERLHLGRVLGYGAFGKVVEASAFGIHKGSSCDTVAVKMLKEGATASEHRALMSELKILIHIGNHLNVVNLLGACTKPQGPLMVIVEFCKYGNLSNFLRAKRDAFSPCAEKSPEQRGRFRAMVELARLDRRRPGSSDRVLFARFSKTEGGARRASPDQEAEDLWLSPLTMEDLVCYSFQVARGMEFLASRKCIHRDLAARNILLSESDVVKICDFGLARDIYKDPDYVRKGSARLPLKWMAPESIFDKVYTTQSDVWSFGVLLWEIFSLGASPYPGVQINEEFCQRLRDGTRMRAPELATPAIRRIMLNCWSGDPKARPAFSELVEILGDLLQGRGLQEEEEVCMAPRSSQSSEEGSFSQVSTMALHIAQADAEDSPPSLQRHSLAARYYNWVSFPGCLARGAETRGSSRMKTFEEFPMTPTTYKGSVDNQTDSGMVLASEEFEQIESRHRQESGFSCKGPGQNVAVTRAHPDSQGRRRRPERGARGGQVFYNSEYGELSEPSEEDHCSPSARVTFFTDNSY

FYN = molecular target: T2, FYN (Homo sapiens, UniProt P06241); assay: KINOMEscan ScanTK; assay type: binding
T2 construct: purchased Eurofins DiscoverX KINOMEscan (scanTK)
T2 sequence (P06241 whole entry): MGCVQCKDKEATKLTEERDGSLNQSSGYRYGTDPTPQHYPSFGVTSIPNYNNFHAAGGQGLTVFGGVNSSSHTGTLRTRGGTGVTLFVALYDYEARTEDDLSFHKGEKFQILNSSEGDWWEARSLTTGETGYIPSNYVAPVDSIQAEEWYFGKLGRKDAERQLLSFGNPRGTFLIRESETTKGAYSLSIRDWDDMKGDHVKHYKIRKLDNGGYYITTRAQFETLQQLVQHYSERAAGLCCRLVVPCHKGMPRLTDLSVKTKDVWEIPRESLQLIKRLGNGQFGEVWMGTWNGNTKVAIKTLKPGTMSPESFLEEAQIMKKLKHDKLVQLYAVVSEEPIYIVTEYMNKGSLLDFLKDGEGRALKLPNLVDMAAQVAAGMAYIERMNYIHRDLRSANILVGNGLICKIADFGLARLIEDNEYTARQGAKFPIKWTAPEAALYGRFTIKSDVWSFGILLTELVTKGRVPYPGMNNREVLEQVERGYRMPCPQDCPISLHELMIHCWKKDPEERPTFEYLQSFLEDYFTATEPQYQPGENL

FLT3(R834Q) = molecular target: T3, FLT3(R834Q) (Homo sapiens, UniProt P36888, R834Q); assay: KINOMEscan ScanTK; assay type: binding
T3 construct: purchased Eurofins DiscoverX KINOMEscan (scanTK)
T3 sequence (P36888 27-993 R834Q): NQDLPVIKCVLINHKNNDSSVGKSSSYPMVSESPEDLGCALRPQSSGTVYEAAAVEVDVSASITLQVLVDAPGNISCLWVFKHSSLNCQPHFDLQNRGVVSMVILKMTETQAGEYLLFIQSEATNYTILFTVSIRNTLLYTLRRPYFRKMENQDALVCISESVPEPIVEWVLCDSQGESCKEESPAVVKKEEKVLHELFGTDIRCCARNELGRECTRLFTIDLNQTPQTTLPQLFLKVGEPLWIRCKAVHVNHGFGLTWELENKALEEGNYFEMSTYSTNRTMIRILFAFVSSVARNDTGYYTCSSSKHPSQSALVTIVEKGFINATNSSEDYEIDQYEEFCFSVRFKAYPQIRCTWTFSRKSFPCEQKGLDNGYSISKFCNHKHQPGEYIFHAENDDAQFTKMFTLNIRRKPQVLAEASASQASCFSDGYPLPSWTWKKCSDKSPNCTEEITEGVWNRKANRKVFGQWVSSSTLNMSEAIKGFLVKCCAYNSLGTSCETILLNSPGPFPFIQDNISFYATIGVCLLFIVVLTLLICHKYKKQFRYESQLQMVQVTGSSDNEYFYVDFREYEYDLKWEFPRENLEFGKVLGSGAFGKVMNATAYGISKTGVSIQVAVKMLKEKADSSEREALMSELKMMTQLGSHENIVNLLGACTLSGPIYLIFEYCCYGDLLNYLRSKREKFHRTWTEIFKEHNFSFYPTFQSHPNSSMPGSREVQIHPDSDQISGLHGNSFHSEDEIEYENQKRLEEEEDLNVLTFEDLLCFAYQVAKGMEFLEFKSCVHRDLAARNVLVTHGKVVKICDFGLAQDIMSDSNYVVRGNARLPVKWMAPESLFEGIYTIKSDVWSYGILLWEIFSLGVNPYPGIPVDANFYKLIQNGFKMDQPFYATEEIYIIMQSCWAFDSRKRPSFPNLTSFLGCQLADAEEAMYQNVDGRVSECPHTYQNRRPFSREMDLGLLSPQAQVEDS

FLT3(N841I) = molecular target: T4, FLT3(N841I) (Homo sapiens, UniProt P36888, N841I); assay: KINOMEscan ScanTK; assay type: binding
T4 construct: purchased Eurofins DiscoverX KINOMEscan (scanTK)
T4 sequence (P36888 27-993 N841I): T3 sequence (P36888 27-993 R834Q) with Q808R, N815I

wild-type BTK = wild-type BTK (Homo sapiens, UniProt Q06187); assay: BTK in vitro activity assay (ADP-Glo, poly-Glu:Tyr phosphorylation, TCEP); conditions: for remaining activity at 0.1 µM: read-out: Remaining BTK activity (%)
Sequence of wild-type BTK (Q06187 whole entry): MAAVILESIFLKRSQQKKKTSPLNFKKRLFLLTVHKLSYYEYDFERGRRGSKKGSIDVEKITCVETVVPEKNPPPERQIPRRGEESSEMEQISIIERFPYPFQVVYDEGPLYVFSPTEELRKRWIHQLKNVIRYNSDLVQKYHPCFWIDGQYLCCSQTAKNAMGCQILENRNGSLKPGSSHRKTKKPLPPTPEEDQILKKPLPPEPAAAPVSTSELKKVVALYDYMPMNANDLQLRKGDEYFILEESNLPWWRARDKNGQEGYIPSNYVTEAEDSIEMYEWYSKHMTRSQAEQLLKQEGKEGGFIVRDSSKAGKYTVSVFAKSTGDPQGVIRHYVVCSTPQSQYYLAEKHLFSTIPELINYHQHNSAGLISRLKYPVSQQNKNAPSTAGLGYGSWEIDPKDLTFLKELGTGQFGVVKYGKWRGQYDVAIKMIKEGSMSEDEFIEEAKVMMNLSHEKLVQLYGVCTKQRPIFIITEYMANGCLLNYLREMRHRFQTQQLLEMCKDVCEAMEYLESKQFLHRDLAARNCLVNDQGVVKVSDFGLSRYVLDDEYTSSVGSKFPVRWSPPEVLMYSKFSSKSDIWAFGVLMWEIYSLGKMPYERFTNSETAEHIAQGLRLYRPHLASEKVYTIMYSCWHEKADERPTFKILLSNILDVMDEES

CSF1R-autoinhibited = molecular target: T5, CSF1R-autoinhibited (Homo sapiens, UniProt P07333); assay: KINOMEscan ScanTK; assay type: binding
T5 construct: purchased Eurofins DiscoverX KINOMEscan (scanTK)
T5 sequence (P07333 539-972 limits assumed): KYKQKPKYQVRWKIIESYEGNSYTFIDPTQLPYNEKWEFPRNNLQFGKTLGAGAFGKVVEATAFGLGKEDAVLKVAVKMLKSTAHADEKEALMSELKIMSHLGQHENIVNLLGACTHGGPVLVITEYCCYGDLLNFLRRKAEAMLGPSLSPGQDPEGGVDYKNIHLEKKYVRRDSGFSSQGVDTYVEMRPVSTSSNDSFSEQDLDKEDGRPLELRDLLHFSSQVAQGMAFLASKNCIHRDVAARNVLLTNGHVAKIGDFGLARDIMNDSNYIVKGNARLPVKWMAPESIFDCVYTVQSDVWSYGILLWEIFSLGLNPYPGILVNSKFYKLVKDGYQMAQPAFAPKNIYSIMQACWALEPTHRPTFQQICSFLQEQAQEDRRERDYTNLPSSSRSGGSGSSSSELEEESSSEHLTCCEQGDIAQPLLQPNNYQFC

Compound | difference in %Control from compound Ib at 1 µM (FLT4; @1000nM) [%] | remaining binding at 1 µM (FLT4; @1000nM, read-out: %Control) [%] | remaining binding at 1 µM (FLT4; read-out: %Control @1000nM) [%] | difference in % of control versus compound Ib at 1 µM (FYN; @1000nM) [%] | remaining binding at 1 µM (FYN; @1000nM, read-out: %Control) [%] | remaining binding at 1 µM (FYN; read-out: %Control @1000nM) [%] | difference in %Control versus compound Ib at 1 µM (FLT3(R834Q); @1000nM) [%] | remaining binding at 1 µM (FLT3(R834Q); @1000nM, read-out: %Control) [%] | remaining binding at 1 µM (FLT3(R834Q); read-out: %Control @1000nM) [%] | difference in %Control versus compound Ib at 1 µM (FLT3(N841I); @1000nM) [%] | remaining binding at 1 µM (FLT3(N841I); @1000nM, read-out: %Control) [%] | remaining binding at 1 µM (FLT3(N841I); read-out: %Control @1000nM) [%] | IC50 (wild-type BTK) [nM] | remaining activity at 0.1 µM (wild-type BTK) [%] | difference in %Control versus compound Ib at 1 µM (CSF1R-autoinhibited; @1000nM) [%] | remaining binding at 1 µM (CSF1R-autoinhibited; @1000nM, read-out: %Control) [%] | remaining binding at 1 µM (CSF1R-autoinhibited; read-out: %Control @1000nM) [%]
Cc1cnc(S(C)(=O)=O)nc1N1CCCC(n2nc(-c3ccc(Oc4ccccc4)cc3)c3c(N)ncnc32)C1 (centres unmarked) [Compound 8a, 1-(1-(5-Methyl-2-(methylsulfonyl)pyrimidin-4-yl)piperidin-3-yl)-3-(4-phenoxyphenyl)-1H-pyrazolo[3,4-d]pyrimidin-4-amine] | 61 | 88 | 88 | 7.4 | 17 | 17 | 9 | 70 | 70 | 40 | 59 | 59 | 24 ± 2 | 4 ± 1 | 11 | 88 | 88
CCOC(=O)c1cnc(S(C)(=O)=O)nc1N1CCC[C@@H](n2nc(-c3ccc(Oc4ccccc4)cc3)c3c(N)ncnc32)C1 [Compound 8c, Ethyl (R)-4-(3-(4-Amino-3-(4-phenoxyphenyl)-1H-pyrazolo[3,4-d]pyrimidin-1-yl)piperidin-1-yl)-2-(methylsulfonyl)pyrimidine-5-carboxylate] | 73 | 100 | 100 | 30.4 | 40 | 40 | 38 | 99 | 99 | 54 | 73 | 73 |  |  | 20 | 97 | 97
COC(=O)c1cnc(S(C)(=O)=O)nc1N1CCCC(n2nc(-c3ccc(Oc4ccccc4)cc3)c3c(N)ncnc32)C1 (centres unmarked) [Compound 8b, Methyl 4-(3-(4-Amino-3-(4-phenoxyphenyl)-1H-pyrazolo[3,4-d]pyrimidin-1-yl)piperidin-1-yl)-2-(methylsulfonyl)pyrimidine-5-carboxylate] | 62 | 89 | 89 | 16.4 | 26 | 26 | 22 | 83 | 83 | 43 | 62 | 62 | 57 ± 1 | 2 ± 1 | 7 | 84 | 84
CNC(=O)c1cnc(S(C)(=O)=O)nc1N1CCCC(n2nc(-c3ccc(Oc4ccccc4)cc3)c3c(N)ncnc32)C1 (centres unmarked) [Compound 8d, 4-(3-(4-Amino-3-(4-phenoxyphenyl)-1H-pyrazolo[3,4-d]pyrimidin-1-yl)piperidin-1-yl)-N-methyl-2-(methylsulfonyl)pyrimidine-5-carboxamide] | 67 | 94 | 94 | 5.4 | 15 | 15 | 29 | 90 | 90 | 37 | 56 | 56 | 28 ± 6 | 2 ± 0.5 | 9 | 86 | 86
C=CC(=O)N1CCC[C@@H](n2nc(-c3ccc(Oc4ccccc4)cc3)c3c(N)ncnc32)C1 [Compound 1g, Ibrutinib, reference compound] |  | 27 | 27 |  | 9.6 | 9.6 |  | 61 | 61 |  |  |  |  |  |  | 77 | 77
